The values that follow come from patent publication US20230157996A1, “SMALL-MOLECULE INHIBITOR TARGETING EB VIRUS NUCLEAR ANTIGEN PROTEIN, PREPARATION METHOD AND USE THEREOF” (priority 2020, published 2023).

Like-named read-outs stand apart in the source and are kept apart here.

The test system of this experiment is C666-1 cells. Put plainly: C666-1 cell viability single concentration (50 μM) inhibition rate (Resazurin). To be noted: for inhibition at 50 µM: Homo sapiens, C6661, 72 h, read-out: C666-1 cell viability single concentration (50 μM) inhibition rate, Ratio* (Inh %). In kind it is cell-based. The method, boiled down:
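Resazurin fluorescence (560/590 nm, 3 h development) gave the proliferation inhibition rate, normalised to DMSO-treated and cell-free blank wells. Compound was tested at a single 50 μmol/L final concentration on C666-1 cells for 72 h at 37° C, with duplicate wells, after 24 h seeding.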
In general terms: Resazurin is reduced to fluorescent resorufin, in cell work by metabolically active cells.

Where [1] appears, read: 50 μM compound, 72 hours, C666-1 cells.

On to `O=C(O)c1cccc(C#CN(Cc2ccccc2)S(=O)(=O)c2csc3ccccc23)c1-n1cccc1` [Example 321, Lithium 3-((N-benzylbenzo[b]thiophen-3-sulfonamido)ethynyl)-2-(1H-pyrrol-1-yl)benzoate], for which the inhibition at 50 µM was under 10%.

Regarding `COC(=O)c1cccc(N2CC(Oc3ccc(CO)cc3)C2)c1-n1cccc1` [Compound 37, Methyl 3-(3-(4-(hydroxymethyl)phenoxy)azetidin-1-yl)-2-(1H-pyrrol-1-yl)benzoate], under setting [1], the inhibition at 50 µM fell in the range of 30 to 50%. `COC(=O)c1cccc(C2CC2c2ccccc2)c1-n1cccc1` (stereo not shown) [Example 272, Methyl 3-(2-phenylcyclopropyl)-2-(1H-pyrrol-1-yl)benzoate]: the inhibition at 50 µM under setting [1] is 10 to 30%. The same measure, in the same setting: under `O=C(O)c1cccc(N2CC(Oc3ccc(Oc4ccccc4)c(Cl)c3)C2)c1-n1cccc1` [Example 199, 3-(3-(3-chloro-4-phenoxyphenoxy)azetidin-1-yl)-2-(1H-pyrrol-1-yl)benzoic acid] stands 30 to 50%.

In the case of `COC(=O)c1cccc(N2CC(Oc3ccc(CO)cc3)C2)c1-c1ccc(F)c(C#N)c1` [Compound 68, Methyl 3′-cyano-4′-fluoro-6-(3-(4-(hydroxymethyl)phenoxy)azetidin-1-yl)-[1,1′-biphenyl]-2-formate], the inhibition at 50 µM under setting [1] lay within 10 to 30%. Consider `COC(=O)c1cccc(N2CC(Oc3ccc(COc4cccnc4)cc3)C2)c1-n1cccc1` [Example 243, Methyl 3-(3-(4-((pyridin-3-yl-oxy)methyl)phenoxy)azetidin-1-yl)-2-(1H-pyrrol-1-yl)benzoate], for which the inhibition at 50 µM under setting [1] is over 50%. Same read-out and setting: then `O=C(O)c1cccc(N2CC(Oc3ccc(COc4cncc(F)c4)cc3)C2)c1-n1cccc1` [Example 359, 3-(3-(4-(((5-fluoropyridin-3-yl)oxy)methyl)phenoxy)azetidin-1-yl)-2-(1H-pyrrol-1-yl)benzoic acid], with under 10%. Regarding `Cc1ccc(S(=O)(=O)N(C#Cc2cccc(C(=O)O)c2-n2cccc2)Cc2ccncc2)cc1` [Example 390], the inhibition at 50 µM fell in the range of 10 to 30%. As for `Nc1ccccc1N1CC2(C1)CN(c1cccc(C(=O)O)c1-n1cccc1)C2` [Compound 20, 3-(6-(2-aminophenyl)-2,6-diazaspiro[3.3]heptan-2-yl)-2-(1H-pyrrol-1-yl)benzoic acid], under setting [1], the inhibition at 50 µM was under 10%. Same read-out and setting: then `COC(=O)c1cccc(N2CC(Oc3ccc(CNS(=O)(=O)c4ccc(C)cc4)cc3)C2)c1-n1cccc1` [Example 283, Methyl 3-(3-(4-(((4-methylphenyl)sulfonamido)methyl)phenoxy)azetidin-1-yl)-2-(1H-pyrrol-1-yl)benzoate], with over 50%. In the case of `COC(=O)c1cccc(N2CC(Oc3ccccc3)C2)c1-n1cccc1` [Example 101, Methyl 3-(3-phenoxyazetidin-1-yl)-2-(1H-pyrrol-1-yl)benzoate], the “C666-1 cell viability single concentration (50 μM) inhibition rate, Ratio* (Inh %)” value under setting [1] is on record as “+++ (30%-50% +++)”. `COC(=O)c1cccc(N2CC(OC(=S)Nc3ccc(Br)cc3)C2)c1-n1cccc1` [Example 156, Methyl 3-(3-(((4-bromophenyl)thiocarbamoyl)oxy)azetidin-1-yl)-2-(1H-pyrrol-1-yl)benzoate]: the inhibition at 50 µM under setting [1] is 30 to 50%.

On to `O=C(O)c1cccc(N2CC(Oc3cccnc3)C2)c1-n1cccc1` [Example 260, 3-(3-(pyridin-3-yloxy)azetidin-1-yl)-2-(1H-pyrrol-1-yl)benzoic acid], for which, under setting [1], the inhibition at 50 µM is under 10%.

On to `O=C(O)c1cccc(N2CC(Oc3ccc(COc4cccc(F)c4)cc3)C2)c1-n1cccc1` [Example 248, 3-(3-(4-((3-fluorophenoxy)methyl)phenoxy)azetidin-1-yl)-2-(1H-pyrrol-1-yl)benzoic acid], for which, under setting [1], the inhibition at 50 µM was under 10%. The same measure, in the same setting: then `COC(=O)c1cccc(N2CC(Oc3ccc(NC(=S)Nc4cccc(Cl)c4)cc3)C2)c1-n1cccc1` [Example 227, Methyl 3-(3-(4-(3-(3-chlorophenyl)thioureido)phenoxy)azetidin-1-yl)-2-(1H-pyrrol-1-yl)benzoate], with 10 to 30%. On the same count and under the same terms, then `CCOCc1ccc(OC2CN(c3cccc(C(=O)OCC)c3-n3cccc3)C2)cc1` [Example 232, Ethyl 3-(3-(4-(ethoxymethyl)phenoxy)azetidin-1-yl)-2-(1H-pyrrol-1-yl)benzoate], with under 10%; and `O=C(O)c1cccc(N2CC(Oc3ccc(C(F)(F)F)cc3)C2)c1-n1cccc1` [Compound 82, 2-(1H-pyrrol-1-yl)-3-(3-(4-(trifluoromethyl)phenoxy)azetidin 1-yl)benzoic acid], with under 10%.

For `O=C(O)c1cccc(N2CC(Oc3ccc(COc4cncnc4)cc3)C2)c1-n1cccc1` [Example 361, 3-(3-(4-((pyrimidin-5-yl-oxy)methyl)phenoxy)azetidin-1-yl)-2-(1H-pyrrol-1-yl)benzoic acid], the inhibition at 50 µM under setting [1] was under 10%.

With `COC(=O)c1cccc(C#CN(Cc2ccccc2F)S(=O)(=O)c2cccs2)c1-n1cccc1` [Example 324, Methyl 3-((N-(2-fluorobenzyl)thiophen-2-sulfonamido)ethynyl)-2-(1H-pyrrol-1-yl)benzoate], the inhibition at 50 µM under setting [1] fell in the range of 10 to 30%. Same read-out and setting: then `COC(=O)c1cccc(N2CC(Oc3ccc(COc4cncnc4)cc3)C2)c1-n1cccc1` [Example 360, Methyl 3-(3-(4-((pyrimidin-5-yl-oxy)methyl)phenoxy)azetidin-1-yl)-2-(1H-pyrrol-1-yl)benzoate], with under 10%; and `Cc1ccc(S(=O)(=O)N(Cc2ccccc2)C2CN(c3cccc(C(=O)O)c3-n3cccc3)C2)cc1` [Example 185, 3-(3-((N-benzyl-4-methylphenyl)sulfonamido)azetidin-1-yl)-2-(1H-pyrrol-1-yl) benzoic acid], with under 10%. `COC(=O)c1cccc(N2CC(Oc3ccc(Oc4ccccc4)c(Cl)c3)C2)c1-n1cccc1` [Example 198, Methyl 3-(3-(3-chloro-4-phenoxyphenoxy)azetidin-1-yl)-2-(1H-pyrrol-1-yl)benzoate]: the inhibition at 50 µM under setting [1] was under 10%. On the same count and under the same terms, under `COC(=O)c1cccc(N2CC(Oc3ccc(COc4ccc(Cl)cc4)cc3)C2)c1-n1cccc1` [Example 240, Methyl 3-(3-(4-((4-chlorophenoxy)methyl)phenoxy)azetidin-1-yl)-2-(1H-pyrrol-1-yl)benzoate] stands under 10%; under `COC(=O)c1cccc(N2CC(Oc3ccc(CNCc4ccccc4)cc3)C2)c1-n1cccc1` [Example 364], under 10%. For `O=C(O)c1cccc(C#CN(Cc2ccc(C(F)(F)F)cc2)S(=O)(=O)c2cccs2)c1-n1cccc1` [Example 337, Lithium 3-((N-(4-(trifluoromethyl)benzyl)thiophen-2-sulfonamido)ethynyl)-2-(1H-pyrrol-1-yl)benzoate], the inhibition at 50 µM lay in the range of 10 to 30%. With `CCCNC(=S)Nc1ccc(OC2CN(c3cccc(C(=O)OC)c3-n3cccc3)C2)cc1` [Example 117, Methyl 3-(3-(4-(3-propylthioureido)phenoxy)azetidin-1-yl)-2-(1H-pyrrol-1-yl)benzoate], the inhibition at 50 µM under setting [1] was over 50%. With `Cc1ccc(S(=O)(=O)N(C)C#Cc2cccc(C(=O)O)c2-n2cccc2)cc1` [Example 384], the inhibition at 50 µM under setting [1] is under 10%. Same read-out and setting: under `CS(=O)(=O)Nc1cccc(N2CC3(C2)CN(c2cccc(C(=O)O)c2[N+](=O)[O-])C3)c1` [Compound 28, 3-(6-(3-(methylsulfonamido)phenyl)-2,6-diazaspiro[3.3]heptan-2-yl)-2-nitrobenzoic acid] stands under 10%; under `COC(=O)c1cccc(N2CC(Sc3ccccc3)C2)c1-n1cccc1` [Example 351, Methyl 3-(3-(phenylthio)azetidin-1-yl)-2-(1H-pyrrol-1-yl)benzoate], under 10%. In the case of `COc1cc(OC2CN(c3cccc(C(=O)O)c3-n3cccc3)C2)ccc1OCCNC(C)=O` [Example 221, 3-(3-(4-(2-acetylaminoethoxy)-3-methoxyphenoxy)azetidin-1-yl)-2-(1H-pyrrol-1-yl)benzoic acid], under setting [1], the inhibition at 50 µM is under 10%. `O=C(O)c1cccc(-c2c(C(=O)O)cccc2N2CC(Oc3ccc(CO)cc3)C2)c1` [Compound 56]: the inhibition at 50 µM under setting [1] is under 10%.

As for `CCC(=O)c1ccc(OC2CN(c3cccc(C(=O)OC)c3-n3cccc3)C2)cc1` [Example 214, Methyl 3-(3-(4-propionylphenoxy)azetidin-1-yl)-2-(1H-pyrrol-1-yl)benzoate], the inhibition at 50 µM under setting [1] is under 10%.

With `COc1ccc(NC(=S)OC2CN(c3cccc(C(=O)O)c3-n3cccc3)C2)cc1` [Example 159, 3-(3-(((4-methoxyphenyl)thiocarbamoyl)oxy)azetidin-1-yl)-2-(1H-pyrrol-1-yl)benzoic acid], the inhibition at 50 µM under setting [1] was under 10%. Same read-out and setting: under `O=C(O)c1cccc(N2CC(Oc3ccc(Sc4ccccc4)cc3)C2)c1-n1cccc1` [Example 209, 3-(3-(4-(thiophenyl)phenoxy)azetidin-1-yl)-2-(1H-pyrrol-1-yl)benzoic acid] stands 10 to 30%. The same measure, in the same setting: then `O=C(O)c1cccc(N2CC(Oc3ccc(CO)cc3)C2)c1-c1ccc(Cl)cc1` [Compound 58, 4′-chloro-6-(3-(4-(hydroxymethyl)phenoxy)azetidin-1-yl)-[1,1′-biphenyl]-2-formic acid], with under 10%; and `COC(=O)c1cccc(C#CN(Cc2cccs2)S(=O)(=O)c2ccc(C)cc2)c1-n1cccc1` [Example 328, Methyl 3-(((4-methyl-N-(thiophen-2-yl-methyl)phenyl)sulfonamido)ethynyl)-2-(1H-pyrrol-1-yl)benzoate], with 10 to 30%. `Cc1ccc(S(=O)(=O)N(C#Cc2cccc(C(=O)O)c2-n2cccc2)Cc2ccc(CO)cc2)cc1` [Example 333, Lithium 3-(((N-(4-(hydroxymethyl)benzyl)-4-methylphenyl)sulfonamido)ethynyl)-2-(1H-pyrrol-1-yl)benzoate]: the inhibition at 50 µM is over 50%.
